Like-named read-outs stand apart in the source and are kept apart here.
How the values were obtained:
Type in all cases: in vivo
female mosquitoes = experiment: Tunnel study based on WHOPES tunnel tests with Hemotek membrane feeding device; conditions: for mortality at 10 mg/m2: 24 h
Procedure: Based on the “WHOPES tunnel tests” (described at http://apps.who.int/iris/bitstream/10665/80270/1/9789241505277_eng.pdf), except that live guniea pig baits were replaced with a Hemotek membrane feeding device, filled with blood and kept constant at 37° C. to mimic a human host. All tests were done under standardised laboratory controlled conditions (27° C.+2° C. under subdued light). The tunnel apparatus was a 60×30×30 cm glass case open at each end and the floor was lined with wet blue roll in order to maintain humidity. A 30×30×30 cm cage, covered in untreated netting, was placed at the release end. The test nets were cut to 25×25 cm squares and fitted into cardboard frames that allow a 20×20 cm area to be exposed. Nine holes, 1 cm in diameter, were made in the netting in the pattern specified in the WHOPES test. The frames were then fitted into the tunnel one third of the way down its length. A Hemotek device, filled with blood and kept constant at 37° C. to mimic a human host, was placed in the smaller area of the glass tunnel behind the test netting, and the end of the tunnel closed with a netting screen. A human sat at the Hemotek end of the tunnels for the duration of the test. At the start of the test (13.30-14.00), 100 female mosquitoes (non-blood fed, aged 5-8 days) were introduced into the cage. Mosquitoes are free to fly in the tunnel but have to make contact with the piece of netting and locate the holes in it before passing through to reach the bait. After 7 hours (20.30-21.00) the mosquitoes were counted in each section of the tunnel. The number of mosquitoes knocked down and blood fed were recorded. Blood-feeding inhibition was assessed by comparing the proportion of blood-fed females (alive or dead) in treated and control tests. Four tunnels were run simultaneously each day, with one control containing untreated netting included with all runs. Three replicates were carried out per treatment.
(§1) In case of multiple tests, the mean value is reported.

Anopheles stephensi [1] = experiment: 12 well plate knockdown test; conditions: 1 h, read-out: Anopheles stephensi 1 hour % KD
How it was run: (§2)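 Wells coated with ethanolic compound solution at a defined concentration and dried; five non-blood-fed adult female Aedes aegypti or Anopheles stephensi (2-5 days old) added per well, fed 10% sucrose. Knockdown scored after 1 hour, averaged over replicates where run.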

Aedes aegypti = experiment: 12 well plate knockdown test; conditions: 1 h, read-out: Aedes aegypti 1 hour % KD
How it was run: as §2

Anopheles stephensi [2] = experiment: 6 well plate test, knockdown after 1 hour and mortality after 24 and 48 hours; parameters: KD: unit not given here; conditions: for KD: after 1 hour
Procedure: The individual wells of six (6) well tissue culture plates were treated with […] of an ethanol solution containing a test compound at a defined concentration. Once the deposits were dry, ten non-blood fed adult female Anopheles stephensi (between two to five day old) were added to each well, and sustained with a 10% sucrose solution in a cotton wool plug. Assessment of the knockdown after 1 hour (Tables B1-B10), and mortality after 24 and 48 hours (Tables B1-B4) was carried out.
as §1

adult female mosquitoes = experiment: Bottle assay based on CDC bottle assay
Procedure: Based on the “CDC bottle assay” (described at http://www.cdc.gov/malaria/resources/pdf/fsp/ir_manual/ir_cdc_bioassay_en.pdf) 1 ml of ethanol containing a test compound at a defined concentration was added to a 250 ml glass bottle and the bottles were placed on a rolling table to coat the inner surfaces as the solvent evaporated. Once dry, twenty five non-blood fed adult female mosquitoes of the appropriate species and strains (each three day old) were aspirated from the stock culture and gently blown into the exposure bottles. The lid of the bottle was replaced and the bottle placed upright out of direct sun light under standard culture conditions, nominally 28° C. and 60-80% relative humidity.
A stopwatch was started, and the assessment of the knock-down were made after 15 mins and 60 minutes. A mosquito was said to be knocked down if it was unable to stand, following the CDC definition. The bottles were replaced in an upright position when not being assessed.
After one hour the mosquitoes were carefully removed from the bottle with an aspirator and placed in a recovery cup. The mosquitoes were supplied with a 10% sucrose solution on a cotton wool bung, and stored under culture conditions. Assessments of the mortality were made after 24 hours and 48 hours (B15).
Each treatment was replicated a minimum of four times, with the mean knockdown or mortality recorded. In each study, a set of bottles was infested with a known insecticide susceptible strain of mosquitoes from the same genera as the resistant strains.

[3] = Table B11, Rate 10 mg/m2, 24 hours, read-out: % Mortality
[4] = Table B1, Comp. (I.3) alone 0.1 ppm
[5] = Table B2, Comp. (I.3) alone 0.5 ppm
[6] = Table B3, Comp. (I.3) alone 0.5 ppm
[7] = Table B4, Comp. (I.3) alone 0.5 ppm

NC(=O)c1cnccc1C(F)(F)F [I.3]
mortality at 10 mg/m2 (female mosquitoes; [3]): 68%
mortality at 10 mg/m2 (female mosquitoes; Table B13, 10 mg/m2, read-out: % 24 hour mortality): 72.2%
mortality at 10 mg/m2 (female mosquitoes; Table B14, 10 mg/m2, read-out: % 24 hour mortality): 68%
% Blood fed (female mosquitoes; Table B11, Rate 10 mg/m2): 3%
% 1 hour KD (female mosquitoes; Table B12, 10 mg/m2): 41.24%
% Blood fed (female mosquitoes; Table B12, 10 mg/m2): 3.09%
% Through net (female mosquitoes; Table B12, 10 mg/m2): 9.28%
% Blood fed (female mosquitoes; Table B13, 10 mg/m2): 18.56%
% Through net (female mosquitoes; Table B13, 10 mg/m2): 22.68%
% Blood fed (female mosquitoes; Table B14, 10 mg/m2): 2.9%
pest or weed control at 0.2 ppm (Anopheles stephensi [1]; Rate 0.2 PPM): 20%
pest or weed control at 2 ppm (Anopheles stephensi [1]; Rate 2 PPM): 20%
pest or weed control at 20 ppm (Anopheles stephensi [1]; Rate 20 PPM): 100%
pest or weed control at 200 ppm (Anopheles stephensi [1]; Rate 200 PPM): 100%
pest or weed control at 0.2 ppm (Aedes aegypti; Rate 0.2 PPM): 100%
pest or weed control at 2 ppm (Aedes aegypti; Rate 2 PPM): 100%
pest or weed control at 20 ppm (Aedes aegypti; Rate 20 PPM): 100%
pest or weed control at 200 ppm (Aedes aegypti; Rate 200 PPM): 100%
24 hr mort (Anopheles stephensi [2]; [4]): 0.0
48 hr mort (Anopheles stephensi [2]; [4]): 0.0
KD (Anopheles stephensi [2]; [4]): 23.3
24 hr mort (Anopheles stephensi [2]; [5]): 7.0
48 hr mort (Anopheles stephensi [2]; [5]): 10.0
KD (Anopheles stephensi [2]; [5]): 60.0
24 hr mort (Anopheles stephensi [2]; [6]): 0.0
48 hr mort (Anopheles stephensi [2]; [6]): 0.0
KD (Anopheles stephensi [2]; [6]): 73.0
24 hr mort (Anopheles stephensi [2]; [7]): 2.5
48 hr mort (Anopheles stephensi [2]; [7]): 2.5
KD (Anopheles stephensi [2]; [7]): 17.5
knockdown after 1 hour (Anopheles stephensi [2]; Table B10, Compound (I.3) alone 0.5 ppm): 0.0
24 hour % mort (adult female mosquitoes; Table B15, rates not given): 0%
48 hour % mort (adult female mosquitoes; Table B15, rates not given): 0%
% 1 hour KD (adult female mosquitoes; Table B15, rates not given): 86.66%
% 1 hour KD (adult female mosquitoes; Table B16, 10ug/bottle): 100%
% 24 hour mortality (adult female mosquitoes; Table B16, 10ug/bottle): 0%

CC1(C)C(C=C(Cl)Cl)C1C(=O)OCc1cccc(Oc2ccccc2)c1 (stereo not shown) [Permethrin]
mortality at 10 mg/m2 (female mosquitoes; [3]): 24%
% Blood fed (female mosquitoes; Table B11, Rate 10 mg/m2): 31%
24 hr mort (Anopheles stephensi [2]; Table B1, 0.0625 ppm alone): 0.0
48 hr mort (Anopheles stephensi [2]; Table B1, 0.0625 ppm alone): 0.0
KD (Anopheles stephensi [2]; Table B1, 0.0625 ppm alone): 0.0
24 hr mort (Anopheles stephensi [2]; Table B1, 0.125 ppm alone): 3.3
48 hr mort (Anopheles stephensi [2]; Table B1, 0.125 ppm alone): 0.0
KD (Anopheles stephensi [2]; Table B1, 0.125 ppm alone): 0.0
24 hr mort (Anopheles stephensi [2]; Table B1, 0.25 ppm alone): 16.7
48 hr mort (Anopheles stephensi [2]; Table B1, 0.25 ppm alone): 20.0
KD (Anopheles stephensi [2]; Table B1, 0.25 ppm alone): 0.0
24 hr mort (Anopheles stephensi [2]; Table B1, 0.5 ppm alone): 23.3
48 hr mort (Anopheles stephensi [2]; Table B1, 0.5 ppm alone): 30.0
KD (Anopheles stephensi [2]; Table B1, 0.5 ppm alone): 0.0
24 hr mort (Anopheles stephensi [2]; Table B1, 1 ppm alone): 40.0
48 hr mort (Anopheles stephensi [2]; Table B1, 1 ppm alone): 46.7
KD (Anopheles stephensi [2]; Table B1, 1 ppm alone): 10.0
24 hr mort (Anopheles stephensi [2]; Table B1, 2 ppm alone): 66.7
48 hr mort (Anopheles stephensi [2]; Table B1, 2 ppm alone): 80.0
KD (Anopheles stephensi [2]; Table B1, 2 ppm alone): 13.3
24 hr mort (Anopheles stephensi [2]; Table B2, 0.0625 ppm alone): 0.0
48 hr mort (Anopheles stephensi [2]; Table B2, 0.0625 ppm alone): 0.0
KD (Anopheles stephensi [2]; Table B2, 0.0625 ppm alone): 0.0
24 hr mort (Anopheles stephensi [2]; Table B2, 0.125 ppm alone): 0.0
48 hr mort (Anopheles stephensi [2]; Table B2, 0.125 ppm alone): 0.0
KD (Anopheles stephensi [2]; Table B2, 0.125 ppm alone): 0.0
24 hr mort (Anopheles stephensi [2]; Table B2, 0.25 ppm alone): 10.0
48 hr mort (Anopheles stephensi [2]; Table B2, 0.25 ppm alone): 10.0
KD (Anopheles stephensi [2]; Table B2, 0.25 ppm alone): 0.0
24 hr mort (Anopheles stephensi [2]; Table B2, 0.5 ppm alone): 30.0
48 hr mort (Anopheles stephensi [2]; Table B2, 0.5 ppm alone): 50.0
KD (Anopheles stephensi [2]; Table B2, 0.5 ppm alone): 0.0
24 hr mort (Anopheles stephensi [2]; Table B2, 1 ppm alone): 40.0
48 hr mort (Anopheles stephensi [2]; Table B2, 1 ppm alone): 70.0
KD (Anopheles stephensi [2]; Table B2, 1 ppm alone): 0.0
24 hr mort (Anopheles stephensi [2]; Table B2, 2 ppm alone): 80.0
48 hr mort (Anopheles stephensi [2]; Table B2, 2 ppm alone): 80.0
KD (Anopheles stephensi [2]; Table B2, 2 ppm alone): 0.0
24 hour % mort (adult female mosquitoes; Table B15, rates not given): 0%
48 hour % mort (adult female mosquitoes; Table B15, rates not given): 0%
% 1 hour KD (adult female mosquitoes; Table B15, rates not given): 100%
% 1 hour KD (adult female mosquitoes; Table B16, 1ug/bottle): 100%
% 24 hour mortality (adult female mosquitoes; Table B16, 1ug/bottle): 0%

From patent US20170094972A1, “Compounds and Compositions Having Knock-Down Activity Against Insect Pests” (priority 2015, published 2017)
